What was measured:
[1] = Plasma protein binding assay (equilibrium dialysis); assay type: in vitro ADME; conditions: human plasma, 2 μM, dialysis 4 hours at 37° C.
Description: The dialysis device used in this example is a 96-well equilibrium dialysis plate (Cat #1006, HT Dialysis LLC, Gales Gerry, CT), and HTD 96 a/b dialysis membrane strips (Cat #1101, MWCO 12-14 kDa, HT Dialysis LLC). The dialysis device was assembled following the manufacturer's instructions.
The dialysis membrane strips were soaked in ultra-pure water at room temperature for approximately 1 hour. Each membrane strip containing 2 membranes was separated and soaked in 20:80 ethanol/water (v/v) for approximately 20 minutes, after which they were ready for used or were stored in the solution at 2-8° C. for up to a month. Prior to experiment, the membrane was rinsed and soaked for 20 minutes in ultra-pure water.
On the day of the experiment, the plasma was thawed by running under col tap water and centrifuged at 3220 rpm for 5 minutes to remove any clos. The pH value of the resulting plasma was checked. Only plasma with pH value with 7.0-8.0 could be used.
Both test and control compounds were dissolved in DMSO to achieve 10 mM stock solutions. Working solutions (400 μM) if test and control compounds were prepared by diluting 10μ p of stock solutions with 240 μL of DMSO. Loading matrix solutions (2 μM) of both test and control compounds were prepared by diluting 5 μL of working solutions with 995 μL of blank matrix.
To prepare the loading matrix containing the test compound or control compounds, aliquots of either test compound working solutions or control compound working solution were spiked into blank matrix to achieve final test concentrations. The concentration of organic solvent in the final solutions were no more than 1% (normally 0.5%). The samples were mixture thoroughly before being used.
To prepare the time zero (TO) samples to be used for recovery determinations. 50 μL aliquots of loading matrix solution were transferred in triplicate to the sample collection plate. The samples were immediately matched with opposite blank buffer to obtain a final volume of 100 μL of 1:1 matrix/dialysis buffer (v/v) in each well. 500 μL of stop solution were added to these TO samples. They were then stored at 2-8° C. pending further processes along with other post-dialysis samples.
To load the dialysis device, an aliquot of 150 μL of the loading matrix was transferred to the donor side of each dialysis well in triplicate, and 150 μL of the dialysis buffer was loaded to the received side of the well. The dialysis was placed in humidified incubator at 37° C. with 5% CO2 on a shaking platform that rated slowly (about 100 rpm) for 4 hours.
At the end of the dialysis, aliquots of 50 μL of samples were taken from both the buffer side and the matrix side of the dialysis deice. These samples were transferred into new 96-well plates (the sample collection plates). […]

[2] = molecular target: human PDE-6C (Homo sapiens, UniProt P51160); assay: Human PDE-6C inhibition assay (fluorescence polarization); assay type: biochemical; conditions: human PDE6C, 100 nM FAM-cGMP, 60 minutes at room temperature
human PDE-6C, sequence (P51160 whole entry): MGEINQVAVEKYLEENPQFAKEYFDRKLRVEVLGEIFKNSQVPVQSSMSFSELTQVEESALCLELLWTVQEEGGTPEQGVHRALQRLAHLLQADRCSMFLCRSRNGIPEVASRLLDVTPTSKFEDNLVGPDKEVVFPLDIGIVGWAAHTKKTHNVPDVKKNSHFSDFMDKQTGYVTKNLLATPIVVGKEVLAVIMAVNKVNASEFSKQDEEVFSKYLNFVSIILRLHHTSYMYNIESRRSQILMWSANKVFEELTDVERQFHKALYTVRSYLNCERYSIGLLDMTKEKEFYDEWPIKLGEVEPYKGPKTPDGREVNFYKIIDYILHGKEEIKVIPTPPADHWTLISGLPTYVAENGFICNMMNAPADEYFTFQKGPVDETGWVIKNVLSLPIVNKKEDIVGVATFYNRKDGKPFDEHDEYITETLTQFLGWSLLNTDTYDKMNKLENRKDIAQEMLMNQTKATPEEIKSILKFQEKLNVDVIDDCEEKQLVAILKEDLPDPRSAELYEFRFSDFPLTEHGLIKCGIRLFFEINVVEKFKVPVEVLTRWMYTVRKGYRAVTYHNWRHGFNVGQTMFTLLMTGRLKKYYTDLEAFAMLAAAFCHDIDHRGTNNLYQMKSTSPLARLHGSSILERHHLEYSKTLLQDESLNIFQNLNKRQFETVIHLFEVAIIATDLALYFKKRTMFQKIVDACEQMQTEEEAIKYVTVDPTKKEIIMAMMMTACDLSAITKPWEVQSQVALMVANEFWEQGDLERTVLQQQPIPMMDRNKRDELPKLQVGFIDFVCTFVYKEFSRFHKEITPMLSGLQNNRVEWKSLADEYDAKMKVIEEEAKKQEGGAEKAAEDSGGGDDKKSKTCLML

[3] = molecular target: human PDE-5A1 (Homo sapiens, UniProt O76074); assay: Human PDE-5A1 inhibition assay (fluorescence polarization); assay type: biochemical; conditions: human PDE5A1, 100 nM FAM-cGMP, 60 minutes at room temperature
[4] = tested on: ocular normotensive rabbits; assay: In vivo intraocular pressure (IOP) lowering effect in rabbits; parameters: species or system New Zealand white rabbits; conditions: 50 μL per eye once, right eye vs vehicle in left eye, 1-10 hours post dose
Excerpt: This example illustrates the procedures and results of the intraocular pressure (IOP) lowering effect of compound 18 as compared to Latanoprostene bunod and latanoprost at different concentrations in ocular normotensive rabbits.
Forty (40) male New Zealand white rabbits were divided into 4 groups with 10 animals per group. Animals were then randomly assigned to groups based on body weight.
Latanoprostene bunod ophthalmic solution (LBN, 0.024%) and latanoprost eye drops (0.005%) were used as positive controls and dosed with the same volumes into the right eyes of the tested animals in groups 1 and 2 once.
Compound 18 was instilled into the right eyes of the tested animals in groups 3 (10 mg/mL) and 4 (20 mg/mL) at 50 μL per eye once.
All left eyes of the tested animals in each group were dosed with vehicle solution at 50 μL per eye.
The intraocular pressures (IOPs) were measured once at pre-dose and then once at 1, 2, 4, 6, 8, and 10 hours post dose for each group of animals. FIGS. 1 to 4 show the results from the IOP lowering studies for all four tested groups.

Structure (SMILES)	% Bound [1] [%]	IC50 [2] [µM]	IC50 [3] [µM]	IOP lowering effect ([4]; 10 mg/mL)	IOP lowering effect ([4]; 20 mg/mL)
CCCc1nn(C)c2c(=O)[nH]c(-c3cc(S(=O)(=O)N4CC(CCCO)C4)ccc3OCC)nc12 [Compound 4, 5-(2-ethoxy-5-((3-(3-hydroxypropyl)azetidin-1-yl)sulfonyl)phenyl)-1-methyl-3-propyl-1,6-dihydro-7H-pyrazolo[4,3-d]pyrimidin-7-one]	96.01				
CCCc1nn(C)c2c(=O)[nH]c(-c3cc(S(=O)(=O)N4CC(NCCCO)C4)ccc3OCC)nc12 [Compound 10, 5-(2-ethoxy-5-((3-((3-hydroxypropyl)amino)azetidin-1-yl)sulfonyl)phenyl)-1-methyl-3-propyl-1,6-dihydro-7H-pyrazolo[4,3-d]pyrimidin-7-one]	86.19	< 0.01	< 0.01		
CCCc1nn(C)c2c(=O)[nH]c(-c3cc(S(=O)(=O)N4CC(NCCCO[N+](=O)[O-])C4)ccc3OCC)nc12 [Compound 22, 3-((1-((4-ethoxy-3-(1-methyl-7-oxo-3-propyl-6,7-dihydro-1H-pyrazolo[4,3-d]pyrimidin-5-yl)phenyl)sulfonyl)azetidin-3-yl)amino)propyl nitrate]	97.53				

Further lines, with some results ahead:

% Bound [1] [%]	IC50 [2] [µM]	IC50 [3] [µM]	Structure (SMILES)	IOP lowering effect ([4]; 10 mg/mL)	IOP lowering effect ([4]; 20 mg/mL)
	< 0.01	< 0.01	CCCc1nn(C)c2c(=O)[nH]c(-c3cc(S(=O)(=O)N4CC(CCO[N+](=O)[O-])C4)ccc3OCC)nc12 [Compound 17, 2-(1-((4-ethoxy-3-(1-methyl-7-oxo-3-propyl-6,7-dihydro-1H-pyrazolo [4,3-d]pyrimidin-5-yl)phenyl)sulfonyl)azetidin-3-yl)ethyl nitrate]		
99.52	< 0.01	< 0.01	CCCc1nn(C)c2c(=O)[nH]c(-c3cc(S(=O)(=O)N4CC(CCCO[N+](=O)[O-])C4)ccc3OCC)nc12 [Compound 18, 3-(1-((4-ethoxy-3-(1-methyl-7-oxo-3-propyl-6,7-dihydro-1H-pyrazolo[4,3-d]pyrimidin-5-yl)phenyl)sulfonyl)azetidin-3-yl)propyl nitrate]	significantly lower the IOP	significantly lower the IOP
